# Experimental data from PMC9323911, “Comparative Metabolomics Study of the Impact of Articaine and Lidocaine on the Metabolism of SH-SY5Y Neuronal Cells” (Metabolites, 2022).
# Structures can show the parent of a compound that is named as a salt.
# Tests used:
# SH-SY5Y cells [1] = assay: 1H NMR metabolic profiling of cell aqueous extracts; type: cell-based, human
# Experimental: (§1) Afterward, the medium was collected and the dishes washed with cold PBS, immediately before the solvent extraction procedure described below. Unexposed cells were used as controls. Each assay comprised duplicates of each condition and three independent assays were performed, giving a total of 6 replicates per condition.
# (§2) The culture medium was collected from each plate (including cell-free medium incubated under the same conditions) in conical tubes and centrifuged at 1000× g for 10 min. Furthermore, 300 µL of the supernatant were collected for protein precipitation, as described by Kostidis et al.. Briefly, 600 µL of 100% methanol (v/v) at −80 °C were added to the collected supernatant ([…]). […] The supernatant was transferred to another tube and vacuum dried (SpeedVac, Eppendorf, Hamburg, Germany). For extracting cellular metabolites, a biphasic extraction protocol (methanol:chloroform:water; 1:1:0.7) was used as previously described. The resulting polar extracts were dried under vacuum in a Speedvac concentrator, and the lipophilic extracts were dried under a nitrogen flow. All extracts were stored at −80 °C prior to NMR analysis.
# (§3) For NMR analysis, dried aqueous and lipid extracts were dissolved, respectively, in 600 μL of deuterated phosphate buffer (PBS 100 mM, pH 7.4) containing 0.1 mM 3-(trimethylsilyl) propionic acid (TSP-d4), and 600 μL of deuterated chloroform containing 0.03% tetramethylsilane (TMS). […] Two-dimensional NMR spectra, namely, ^1H-^1H TOCSY, J-resolved and ^1H-^13C HSQC spectra, were also recorded for selected samples to aid metabolite identification. Signal assignment was based on matching 1D and 2D spectral information to reference spectra available in Chenomx 9.0 (Edmonton, AB, Canada), BBIOREFCODE-2–0–0 (Bruker Biospin, Rheinstetten, Germany) and HMDB.
# Principal Component Analysis (PCA) and Partial Least Squares-Discriminant Analysis (PLS-DA) were applied and the results were visualized through factorial co-ordinates (‘scores’) and factorial contributions (‘loadings’) colored according to variable importance to the projection (VIP). For PLS-DA models, Q^2 and R^2 values, respectively reflecting predictive capability and explained variance, obtained from sevenfold internal cross validation, were used to assess the robustness of group discrimination.
# (§4) To provide a quantitative measurement of metabolic variations, spectral integration and total area normalization of selected signals (vide Supplementary Table S1) were carried out in Amix-Viewer 3.9.15 (Bruker Biospin, Rheinstetten, Germany). For each metabolite, the percentage of variation (or fold change) in exposed samples was calculated relative to respective controls, along with the effect size (ES) and statistical significance (p-value). The variations with larger magnitude (|ES| > 0.8) were expressed in a heatmap.
# SH-SY5Y cells [2] = assay: 1H NMR metabolic profiling of culture medium (consumption/excretion); type: cell-based, human; details: vs control
# Experimental: as §1, §2, §3, §4
smiles,measurement,setting,value
"CCN(CC)CC(=O)Nc1c(C)cccc1C [LDC, lidocaine hydrochloride]","2-Ketovaline, variation in relation to control","SH-SY5Y cells [1]; IC10, 24 h, aqueous extract",0.0%
same,"2-Oxoisoleucine, variation in relation to control","SH-SY5Y cells [1]; IC10, 24 h, aqueous extract",0.0%
same,"ATP + ADP, variation in relation to control","SH-SY5Y cells [1]; IC10, 24 h, aqueous extract",-10.4%
same,"Alanine, variation in relation to control","SH-SY5Y cells [1]; IC10, 24 h, aqueous extract",0.0%
same,"Asparagine, variation in relation to control","SH-SY5Y cells [1]; IC10, 24 h, aqueous extract",-18.9%
same,"Aspartate, variation in relation to control","SH-SY5Y cells [1]; IC10, 24 h, aqueous extract",-12.9%
same,"Creatine, variation in relation to control","SH-SY5Y cells [1]; IC10, 24 h, aqueous extract",24.9%
same,"Cystathionine, variation in relation to control","SH-SY5Y cells [1]; IC10, 24 h, aqueous extract",12.1%
same,"Formate, variation in relation to control","SH-SY5Y cells [1]; IC10, 24 h, aqueous extract",17.0%
same,"Glutamate, variation in relation to control","SH-SY5Y cells [1]; IC10, 24 h, aqueous extract",-16.3%
same,"Glutamine, variation in relation to control","SH-SY5Y cells [1]; IC10, 24 h, aqueous extract",-22.0%
same,"Glycerophosphocholine, variation in relation to control","SH-SY5Y cells [1]; IC10, 24 h, aqueous extract",-11.7%
same,"Glycine, variation in relation to control","SH-SY5Y cells [1]; IC10, 24 h, aqueous extract",16.6%
same,"Histidine, variation in relation to control","SH-SY5Y cells [1]; IC10, 24 h, aqueous extract",11.8%
same,"Isobutyrate, variation in relation to control","SH-SY5Y cells [1]; IC10, 24 h, aqueous extract",-14.4%
same,"Isoleucine, variation in relation to control","SH-SY5Y cells [1]; IC10, 24 h, aqueous extract",18.2%
same,"Lactate, variation in relation to control","SH-SY5Y cells [1]; IC10, 24 h, aqueous extract",0.0%
same,"Leucine, variation in relation to control","SH-SY5Y cells [1]; IC10, 24 h, aqueous extract",33.4%
same,"NAD+, variation in relation to control","SH-SY5Y cells [1]; IC10, 24 h, aqueous extract",0.0%
same,"Panthothenic, variation in relation to control","SH-SY5Y cells [1]; IC10, 24 h, aqueous extract",11.9%
same,"Phenylalanine, variation in relation to control","SH-SY5Y cells [1]; IC10, 24 h, aqueous extract",22.7%
same,"Phosphocholine, variation in relation to control","SH-SY5Y cells [1]; IC10, 24 h, aqueous extract",14.1%
same,"Phosphocreatine, variation in relation to control","SH-SY5Y cells [1]; IC10, 24 h, aqueous extract",-16.1%
same,"Proline, variation in relation to control","SH-SY5Y cells [1]; IC10, 24 h, aqueous extract",-15.8%
same,"UDP-GlcNAc, variation in relation to control","SH-SY5Y cells [1]; IC10, 24 h, aqueous extract",-10.8%
same,"Valine, variation in relation to control","SH-SY5Y cells [1]; IC10, 24 h, aqueous extract",15.5%
same,"beta-Alanine, variation in relation to control","SH-SY5Y cells [1]; IC10, 24 h, aqueous extract",-10.0%
same,"myo-Inositol, variation in relation to control","SH-SY5Y cells [1]; IC10, 24 h, aqueous extract",-16.9%
same,"2-Ketovaline, variation in relation to control","SH-SY5Y cells [1]; IC50, 24 h, aqueous extract",16.5%
same,"2-Oxoisoleucine, variation in relation to control","SH-SY5Y cells [1]; IC50, 24 h, aqueous extract",21.6%
same,"ATP + ADP, variation in relation to control","SH-SY5Y cells [1]; IC50, 24 h, aqueous extract",-23.0%
same,"Alanine, variation in relation to control","SH-SY5Y cells [1]; IC50, 24 h, aqueous extract",17.1%
same,"Asparagine, variation in relation to control","SH-SY5Y cells [1]; IC50, 24 h, aqueous extract",27.8%
same,"Aspartate, variation in relation to control","SH-SY5Y cells [1]; IC50, 24 h, aqueous extract",12.1%
same,"Creatine, variation in relation to control","SH-SY5Y cells [1]; IC50, 24 h, aqueous extract",17.6%
same,"Cystathionine, variation in relation to control","SH-SY5Y cells [1]; IC50, 24 h, aqueous extract",-28.3%
same,"Formate, variation in relation to control","SH-SY5Y cells [1]; IC50, 24 h, aqueous extract",58.8%
same,"Glutamate, variation in relation to control","SH-SY5Y cells [1]; IC50, 24 h, aqueous extract",0.0%
same,"Glutamine, variation in relation to control","SH-SY5Y cells [1]; IC50, 24 h, aqueous extract",43.0%
same,"Glycerophosphocholine, variation in relation to control","SH-SY5Y cells [1]; IC50, 24 h, aqueous extract",-33.4%
same,"Glycine, variation in relation to control","SH-SY5Y cells [1]; IC50, 24 h, aqueous extract",48.8%
same,"Histidine, variation in relation to control","SH-SY5Y cells [1]; IC50, 24 h, aqueous extract",22.5%
same,"Isoleucine, variation in relation to control","SH-SY5Y cells [1]; IC50, 24 h, aqueous extract",33.4%
same,"Lactate, variation in relation to control","SH-SY5Y cells [1]; IC50, 24 h, aqueous extract",-12.4%
same,"Leucine, variation in relation to control","SH-SY5Y cells [1]; IC50, 24 h, aqueous extract",54.2%
same,"NAD+, variation in relation to control","SH-SY5Y cells [1]; IC50, 24 h, aqueous extract",16.7%
same,"Panthothenic, variation in relation to control","SH-SY5Y cells [1]; IC50, 24 h, aqueous extract",14.7%
same,"Phenylalanine, variation in relation to control","SH-SY5Y cells [1]; IC50, 24 h, aqueous extract",36.2%
same,"Phosphocholine, variation in relation to control","SH-SY5Y cells [1]; IC50, 24 h, aqueous extract",23.7%
same,"Phosphocreatine, variation in relation to control","SH-SY5Y cells [1]; IC50, 24 h, aqueous extract",-42.3%
same,"Proline, variation in relation to control","SH-SY5Y cells [1]; IC50, 24 h, aqueous extract",-38.0%
same,"UDP-GlcNAc, variation in relation to control","SH-SY5Y cells [1]; IC50, 24 h, aqueous extract",-38.7%
same,"Valine, variation in relation to control","SH-SY5Y cells [1]; IC50, 24 h, aqueous extract",33.9%
same,"beta-Alanine, variation in relation to control","SH-SY5Y cells [1]; IC50, 24 h, aqueous extract",-72.1%
same,"myo-Inositol, variation in relation to control","SH-SY5Y cells [1]; IC50, 24 h, aqueous extract",-50.6%
same,intracellular glutamate level (in words),"SH-SY5Y cells [1]; IC50, 24 h, vs control",not altered
same,intracellular phosphocholine level (in words),"SH-SY5Y cells [1]; IC50, 24 h, vs control",increased
same,pyruvate consumption,"SH-SY5Y cells [2]; IC10, 24 h",increased significantly
same,pyruvate consumption,"SH-SY5Y cells [2]; IC50, 24 h",no difference to controls
